In patent publication US5166379A, “Synthesis of compounds with biological activity, and methods of use” (Harbor Branch Oceanographic Institution, Inc., priority 1990, dated 1992):
Values after ≈ are worked out from the molar mass of the structure shown. Like-named read-outs stand apart in the source and are kept apart here.

Experiments:
[1] = test system: murine splenocyte suspensions (BALB/c and C57BL/6J mice); assay: Mixed Lymphocyte Reaction (MLR); assay type: cell-based; details: for activity at 0.05 µg/mL / activity at 0.2 µg/mL / activity at 0.8 µg/mL / activity at 3.1 µg/mL / activity at 12.5 µg/mL / activity at 50 µg/mL: Mus musculus, Splenocyte, read-out: % MLR (percentage of positive control)
Protocol: I. Mixed Lymphocyte Reaction
1. Murine splenocyte suspensions were prepared separately from BALB/c and C57BL/6J mice. […] The cell concentrations were adjusted to 2.5×10^6 cells/ml. Aliquots of each cell population were removed to separate tubes, and the remaining two cell suspensions combined to one tube.
(§1) 2. Serial, log10 dilutions of the pure compound were made in absolute ethanol, and 10 μl of each dilution was added to wells of microtiter test plates, and allowed to dry.
3. A volume of 0.2 ml of the combined splenocyte suspensions was added to triplicate test wells. Positive control wells received combined splenocyte suspensions in the absence of the test compounds. Negative control wells consisted of separate (not mixed) splenocyte suspensions cultured in the absence of the test compounds.
4. Plates were incubated in 5% CO2 at 37° C. for 86 hours.
5. A volume of 0.05 ml of ^3 H-thymidine (20 μCi/ml) was added to each well, and the plates were incubated in 5% CO2 at 37° C. for an additional 5 hours.
6. The contents of each well of the microtiter plates were harvested onto glass fiber filter strips, and the resulting filter discs placed in scintillation vials to which 2.0 ml of scintillation fluid was added.
7. The amount of incorporated ^3 H-thymidine was determined by counting the vials in a liquid scintillation counter.
8. Triplicate counts were averaged, and the data reported as a percentage of the positive control.

[2] = test system: P388 cells; assay: Antiproliferative effects against P388 cells (antitumor, MTT); assay type: cell-based; details: for P388 IC50: 48 hour exposure; for IC50: Mus musculus, P388, 48 hour exposure
Protocol: IV. Antitumor Methodology
To assess the antiproliferative effects against P388 cells, 200 μl cultures (96-well tissue culture plates, Nunc, Denmark) were established at 1×10^5 cells/ml in drug-free medium or medium containing the pure compounds/crude extracts at a final dilution or 1:500 and at various concentrations. Solvent for all dilutions was methanol, which was removed from plates under vacuum. All experimental cultures were initiated in media containing Gentamicin sulfate (50 μg/ml; Schering Corporation, Kenilworth, NJ).
To quantitate the effects of pure compounds/crude extracts on cell proliferation, 75 μl of warm growth medium containing 5 mg/ml MTT was added to each well, cultures were returned to the incubator, and were left undisturbed for 90 minutes. To spectrophotometrically quantitate formation of reduced formazan, plates were centrifuged (900×g, 5 minutes), culture fluids removed by aspiration, and 200 μl of acidified isopropanol (2 ml concentrated HCl/liter isopropanol) added per well. The absorbance of the resulting solutions were measured at 570 nm with a plate reader (MR700 Microplate Reader, Dynatech Laboratories, Chantilly, VA).

[3] = test system: lymphoid cells (murine BALB/c splenocytes); assay: Lymphocyte Viability Assay (LCV); assay type: cell-based
Protocol: (§2) II. Lymphocyte Viability Assay
(§3) 1. Compounds were similarly tested in parallel with the MLR to determine their toxic effects on lymphoid cells using the lymphocyte viability assay (LCV).
as §1
(§4) 3. Murine splenocyte suspensions were prepared from BALB/c mice. […] The cell concentrations were adjusted to 2.5×10^6 cells/ml.
(§5) 4. A volume of 0.2 ml of the splenocyte suspension was added to replicate test wells. Positive control wells received splenocyte suspensions in the absence of the test compounds.
(§6) 5. Plates were incubated at 37° C. for 86 hours. At the end of the incubation period, a volume of 75 μl of a 2.0 mg/ml solution of MTT was added to each well, and the plates were returned to the incubator for an additional 5 hours.
(§7) 6. The supernatants from each microwell were then removed, and a volume of 200 μl of isopropanol was added and the contents mixed.
(§8) 7. Values were obtained by comparing the optical densities (determined at 570 and 650 nm) of wells containing the test compounds with those of wells containing cells and medium only (positive control). The results are expressed as a percentage of the positive control.
(§9) 8. Replicate counts were averaged, and the data reported as a percentage of the positive control. An LCV value of less than 60% of the positive control is an indication of cytotoxicity of the test compounds for lymphoid cells.

[4] = Lymphocyte Viability Assay (LCV); assay type: cell-based, murine; details: mouse, splenocytes, read-out: % LCV (percentage of positive control)
Protocol: as §2, §3, §1, §4, §5, §6, §7, §8, §9

| SMILES | activity at 0.05 µg/mL ([1]; 0.05 μg/ml) [%] | activity at 0.2 µg/mL ([1]; 0.2 μg/ml) [%] | activity at 0.8 µg/mL ([1]; 0.8 μg/ml) [%] | activity at 3.1 µg/mL ([1]; 3.1 μg/ml) [%] | activity at 12.5 µg/mL ([1]; 12.5 μg/ml) [%] | activity at 50 µg/mL ([1]; 50 μg/ml) [%] | IC50 [2] [µg/mL] | viability ([4]; 0.05 μg/ml) [%] | viability ([4]; 0.2 μg/ml) [%] | viability ([4]; 0.8 μg/ml) [%] | viability ([4]; 3.1 μg/ml) [%] | viability ([4]; 12.5 μg/ml) [%] | viability ([4]; 50 μg/ml) [%] | other results |
| --- | --- | --- | --- | --- | --- | --- | --- | --- | --- | --- | --- | --- | --- | --- |
| C#CC(O)C=CCCCCC (stereo not shown) [CH3 (CH2)4 CH= CH--CHOH--C≡CH] | – | – | – | – | – | – | – | – | – | – | – | – | – | % MLR (percentage of positive control) ([1]; 0.05 μg/ml): 112%; % MLR (percentage of positive control) ([1]; 0.2 μg/ml): 14%; % MLR (percentage of positive control) ([1]; 0.8 μg/ml): 82%; % MLR (percentage of positive control) ([1]; 3.1 μg/ml): 0%; % MLR (percentage of positive control) ([1]; 12.5 μg/ml): 0%; % MLR (percentage of positive control) ([1]; 50 μg/ml): 0%; P388 IC50 [2]: 74.0 µg/mL; % LCV (percentage of positive control) ([3]; 0.05 μg/ml): 109%; % LCV (percentage of positive control) ([3]; 0.2 μg/ml): 121%; % LCV (percentage of positive control) ([3]; 0.8 μg/ml): 119%; % LCV (percentage of positive control) ([3]; 3.1 μg/ml): 89%; % LCV (percentage of positive control) ([3]; 12.5 μg/ml): 65%; % LCV (percentage of positive control) ([3]; 50 μg/ml): 7% |
| CCCCCCCCCCCCCCC/C=C/C=O [CH3 (CH2)14 CH=CH--CHO] | 150 | 105 | 135 | 146 | 0 | 0 | 15.1 (≈ 56.7 µM) | 130 | 175 | 181 | 186 | 89 | 5 | – |
| CC#CC(O)/C=C/CCCCCCCCCCCCCCC (stereo not shown) [CH3 (CH2)14 CH=CH--CHOH--C≡C--CH3] | 137 | 143 | 83 | 0 | 0 | 0 | 200 (≈ 652 µM) | 154 | 107 | 75 | 86 | 67 | 60 | – |
| C#CC(C)(O)/C=C/CCCCCCCCCCCCCCC (stereo not shown) [CH3 (CH2)14 CH=CH--COH(CH3)--C≡CH] | 152 | 161 | 171 | 115 | 65 | 0 | 67 (≈ 219 µM) | 53 | 107 | 118 | 109 | 54 | 5 | – |
| CCCCCCCCCCCCCCCC=O [CH3 (CH2)14 CHO] | 59 | 94 | 80 | 73 | 36 | 0 | 44 (≈ 183 µM) | 237 | 182 | 161 | 202 | 153 | 132 | – |
| C#CC(/C=C/CCCCCCCCCCCCCCC)OC(C)=O (stereo not shown) [CH3 (CH2)14 CH=CH--CHOAc--C≡CH] | 73 | 0 | 0 | 0 | 0 | 0 | 100 (≈ 299 µM) | 58 | 53 | 30 | 30 | 23 | 11 | – |
| CCCCCCCCCCCCCCC/C=C/C(O)C#N (stereo not shown) [CH3 (CH2)14 CH=CH--CHOH--C≡N] | 60 | 89 | 85 | 80 | 0 | 0 | 28 (≈ 95.4 µM) | 132 | 135 | 161 | 144 | 77 | 37 | – |
| C#CC(O)C=CCCCCCCCCC (stereo not shown) [CH3 (CH2)8 CH=CH--CHOH--C≡CH] | – | – | – | – | – | – | – | – | – | – | – | – | – | % MLR (percentage of positive control) ([1]; 0.05 μg/ml): 120%; % MLR (percentage of positive control) ([1]; 0.2 μg/ml): 0%; % MLR (percentage of positive control) ([1]; 0.8 μg/ml): 0%; % MLR (percentage of positive control) ([1]; 3.1 μg/ml): 0%; % MLR (percentage of positive control) ([1]; 12.5 μg/ml): 0%; % MLR (percentage of positive control) ([1]; 50 μg/ml): 0%; P388 IC50 [2]: 27.0 µg/mL; % LCV (percentage of positive control) ([3]; 0.05 μg/ml): 35%; % LCV (percentage of positive control) ([3]; 0.2 μg/ml): 44%; % LCV (percentage of positive control) ([3]; 0.8 μg/ml): 30%; % LCV (percentage of positive control) ([3]; 3.1 μg/ml): 26%; % LCV (percentage of positive control) ([3]; 12.5 μg/ml): 5%; % LCV (percentage of positive control) ([3]; 50 μg/ml): 0% |
| CCCCCCCCCCCCCCCCO [CH3 (CH2)14 CH2 OH] | 136 | 128 | 127 | 137 | 0 | 0 | 9.3 (≈ 38.4 µM) | 70 | 86 | 37 | 98 | 0 | 0 | – |
| C#CC(O)CCCCCCCCCCCCCCCCC (stereo not shown) [CH3 (CH2)16 CHOH--C≡CH] | 0 | 0 | 0 | 0 | 0 | 0 | 48 (≈ 163 µM) | 61 | 68 | 39 | 56 | 7 | 2 | – |
